From the supplement of paper PMC9663587

What was measured:
[1] = compound: CCN1CCN(Cc2ccc(Nc3ncc(F)c(-c4cc(F)c5nc(C)n(C(C)C)c5c4)n3)nc2)CC1; assay: increase in dead-cell fraction, 72 h; higher = more death;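 also: breast cancer cell lines in 384-well plates, stained with Hoechst plus LIVE/DEAD far red dye and imaged, cells above an LDR intensity threshold counted dead, Hoechst-negative corpses included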
Flavopiridol [2] = compound: T1, CN1CC[C@H](c2c(O)cc(O)c3c(=O)cc(-c4ccccc4Cl)oc23)[C@H](O)C1 [Flavopiridol]; assay: as above
YKL-5-124 = compound: C=CC(=O)Nc1ccc(C(=O)Nc2[nH]nc3c2CN(C(=O)N[C@H](CN(C)C)c2ccccc2)C3(C)C)cc1 [YKL-5-124]; assay: GR value, 72 h; higher = faster growth (1 = untreated, <0 = killing);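 also: breast cancer and non-malignant breast epithelial lines, nine half-log doses, viable cells counted by Hoechst and LIVE/DEAD dye imaging versus time-zero plates and DMSO controls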
BSJ-03-123 = compound: CC(=O)c1c(C)c2cnc(Nc3ccc(N4CCN(CCOCCOCCOCCNC(=O)COc5cccc6c5C(=O)N(C5CCC(=O)NC5=O)C6=O)CC4)cn3)nc2n(C2CCCC2)c1=O [BSJ-03-123]; assay: as above
[3] = compound: CC(=O)c1c(C)c2cnc(Nc3ccc(N4CCNCC4)cn3)nc2n(C2CCCC2)c1=O; assay: as above
[4] = compound: CCN1CCN(Cc2ccc(Nc3ncc(F)c(-c4cc(F)c5nc(C)n(C(C)C)c5c4)n3)nc2)CC1; assay: as above
Neratinib/HKI272 = compound: CCOc1cc2ncc(C#N)c(Nc3ccc(OCc4ccccn4)c(Cl)c3)c2cc1NC(=O)/C=C/CN(C)C [Neratinib/HKI272]; assay: as above
[5] = compound: CCc1cnn2c(NCc3ccc[n+]([O-])c3)cc(N3CCCC[C@H]3CCO)nc12; assay: as above
LEE011/Ribociclib = compound: CN(C)C(=O)c1cc2cnc(Nc3ccc(N4CCNCC4)cn3)nc2n1C1CCCC1 [LEE011/Ribociclib]; assay: as above
THZ531 = compound: CN(C)C/C=C/C(=O)Nc1ccc(C(=O)N2CCC[C@@H](Nc3ncc(Cl)c(-c4c[nH]c5ccccc45)n3)C2)cc1 [THZ531]; assay: as above
THZ1 = compound: CN(C)C/C=C/C(=O)Nc1ccc(C(=O)Nc2cccc(Nc3ncc(Cl)c(-c4c[nH]c5ccccc45)n3)c2)cc1 [THZ1]; assay: as above
Flavopiridol [6] = compound: T1, Flavopiridol; assay: as above

HCC1419
increase in dead-cell fraction ([1]; 0.001 µM): -0.0053 | increase in dead-cell fraction ([1]; 0.003162 µM): -0.0087 | increase in dead-cell fraction ([1]; 0.01 µM): -0.0058 | increase in dead-cell fraction ([1]; 0.03162 µM): -0.0119 | increase in dead-cell fraction ([1]; 0.1 µM): -0.0149 | increase in dead-cell fraction ([1]; 0.3162 µM): -0.0181 | increase in dead-cell fraction ([1]; 1 µM): -0.006 | increase in dead-cell fraction ([1]; 3.162 µM): -0.0031 | increase in dead-cell fraction ([1]; 10 µM): 0.0471 | increase in dead-cell fraction (Flavopiridol [2]; 0.0001 µM): -0.0053 | increase in dead-cell fraction (Flavopiridol [2]; 0.0003162 µM): -0.0069 | increase in dead-cell fraction (Flavopiridol [2]; 0.001 µM): -0.006 | increase in dead-cell fraction (Flavopiridol [2]; 0.003162 µM): -0.0084 | increase in dead-cell fraction (Flavopiridol [2]; 0.01 µM): -0.0002 | increase in dead-cell fraction (Flavopiridol [2]; 0.03162 µM): 0.0077 | increase in dead-cell fraction (Flavopiridol [2]; 0.1 µM): 0.0061 | increase in dead-cell fraction (Flavopiridol [2]; 0.3162 µM): 0.0159 | increase in dead-cell fraction (Flavopiridol [2]; 1 µM): 0.162 | GR value (YKL-5-124; 0.001 µM): 0.259 GR | GR value (YKL-5-124; 0.003162 µM): 0.184 GR | GR value (YKL-5-124; 0.01 µM): 0.0618 GR | GR value (YKL-5-124; 0.03162 µM): 0.124 GR | GR value (YKL-5-124; 0.1 µM): -0.0246 GR | GR value (YKL-5-124; 0.3162 µM): -0.0463 GR | GR value (YKL-5-124; 1 µM): -0.0452 GR | GR value (YKL-5-124; 3.162 µM): -0.184 GR | GR value (YKL-5-124; 10 µM): -0.379 GR | GR value (BSJ-03-123; 0.001 µM): 0.753 GR | GR value (BSJ-03-123; 0.003162 µM): 0.75 GR | GR value (BSJ-03-123; 0.01 µM): 0.669 GR | GR value (BSJ-03-123; 0.03162 µM): 0.644 GR | GR value (BSJ-03-123; 0.1 µM): 0.643 GR | GR value (BSJ-03-123; 0.3162 µM): 0.527 GR | GR value (BSJ-03-123; 1 µM): 0.432 GR | GR value (BSJ-03-123; 3.162 µM): 0.443 GR | GR value (BSJ-03-123; 10 µM): 0.165 GR | GR value ([3]; 0.0003162 µM): 1.18 GR | GR value ([3]; 0.001 µM): 1.09 GR | GR value ([3]; 0.003162 µM): 1.11 GR | GR value ([3]; 0.01 µM): 0.903 GR | GR value ([3]; 0.03162 µM): 0.828 GR | GR value ([3]; 0.1 µM): 0.612 GR | GR value ([3]; 0.3162 µM): 0.535 GR | GR value ([3]; 1 µM): 0.393 GR | GR value ([3]; 3.162 µM): 0.492 GR | GR value ([4]; 0.001 µM): 1.13 GR | GR value ([4]; 0.003162 µM): 0.823 GR | GR value ([4]; 0.01 µM): 0.714 GR | GR value ([4]; 0.03162 µM): 0.548 GR | GR value ([4]; 0.1 µM): 0.548 GR | GR value ([4]; 0.3162 µM): 0.415 GR | GR value ([4]; 1 µM): 0.487 GR | GR value ([4]; 3.162 µM): 0.303 GR | GR value ([4]; 10 µM): 0.2 GR | GR value (Neratinib/HKI272; 0.0003162 µM): 0.769 GR | GR value (Neratinib/HKI272; 0.001 µM): 0.611 GR | GR value (Neratinib/HKI272; 0.003162 µM): 0.148 GR | GR value (Neratinib/HKI272; 0.01 µM): 0.0675 GR | GR value (Neratinib/HKI272; 0.03162 µM): -0.097 GR | GR value (Neratinib/HKI272; 0.1 µM): -0.159 GR | GR value (Neratinib/HKI272; 0.3162 µM): -0.26 GR | GR value (Neratinib/HKI272; 1 µM): -0.404 GR | GR value (Neratinib/HKI272; 3.162 µM): -0.494 GR | GR value ([5]; 0.0001 µM): 1.15 GR | GR value ([5]; 0.0003162 µM): 1.16 GR | GR value ([5]; 0.001 µM): 1.06 GR | GR value ([5]; 0.003162 µM): 1.25 GR | GR value ([5]; 0.01 µM): 1.15 GR | GR value ([5]; 0.03162 µM): 0.199 GR | GR value ([5]; 0.1 µM): -0.384 GR | GR value ([5]; 0.3162 µM): -0.426 GR | GR value ([5]; 1 µM): -0.471 GR | GR value (LEE011/Ribociclib; 0.001 µM): 0.953 GR | GR value (LEE011/Ribociclib; 0.003162 µM): 0.835 GR | GR value (LEE011/Ribociclib; 0.01 µM): 0.774 GR | GR value (LEE011/Ribociclib; 0.03162 µM): 0.889 GR | GR value (LEE011/Ribociclib; 0.1 µM): 0.685 GR | GR value (LEE011/Ribociclib; 0.3162 µM): 0.58 GR | GR value (LEE011/Ribociclib; 1 µM): 0.655 GR | GR value (LEE011/Ribociclib; 3.162 µM): 0.561 GR | GR value (LEE011/Ribociclib; 10 µM): 0.525 GR | GR value (THZ531; 0.0001 µM): 0.969 GR | GR value (THZ531; 0.0003162 µM): 1.03 GR | GR value (THZ531; 0.001 µM): 1.02 GR | GR value (THZ531; 0.003162 µM): 0.993 GR | GR value (THZ531; 0.01 µM): 1.18 GR | GR value (THZ531; 0.03162 µM): 1.08 GR | GR value (THZ531; 0.1 µM): 0.772 GR | GR value (THZ531; 0.3162 µM): 0.0179 GR | GR value (THZ531; 1 µM): -0.31 GR | GR value (THZ1; 0.0001 µM): 0.981 GR | GR value (THZ1; 0.0003162 µM): 0.953 GR | GR value (THZ1; 0.001 µM): 1.04 GR | GR value (THZ1; 0.003162 µM): 1.03 GR | GR value (THZ1; 0.01 µM): 1.01 GR | GR value (THZ1; 0.03162 µM): 0.765 GR | GR value (THZ1; 0.1 µM): 0.228 GR | GR value (THZ1; 0.3162 µM): -0.215 GR | GR value (THZ1; 1 µM): -0.386 GR | GR value (Flavopiridol [6]; 0.0001 µM): 1.06 GR | GR value (Flavopiridol [6]; 0.0003162 µM): 0.994 GR | GR value (Flavopiridol [6]; 0.001 µM): 0.974 GR | GR value (Flavopiridol [6]; 0.003162 µM): 0.95 GR | GR value (Flavopiridol [6]; 0.01 µM): 0.932 GR | GR value (Flavopiridol [6]; 0.03162 µM): 0.894 GR | GR value (Flavopiridol [6]; 0.1 µM): 0.658 GR | GR value (Flavopiridol [6]; 0.3162 µM): 0.396 GR | GR value (Flavopiridol [6]; 1 µM): -0.261 GR
